According to US20250084096A1, “TERT-BUTYL (S)-2-(4-(PHENYL)-6H-THIENO[3, 2-F][1, 2, 4]TRIAZOLO[4, 3-A] [1,4]DIAZEPIN-6-YL) ACETATE DERIVATIVES AND RELATED COMPOUNDS AS BROMODOMAIN BRD4 INHIBITORS FOR TREATING CANCER” (Genentech, Inc., priority 2018, published 2025):

What was measured:
MYC expression = assay: Myc mRNA assay in MV-4-11 cells; assay type: cell-based; conditions: for Maximum Inhibition (%) (mean) of MYC expression: 4 hours, QuantiGene 2.0; for IC50: Homo sapiens, MV4-11, 4 hours, QuantiGene 2.0, read-out: Inhibition of MYC expression Average IC50
Experimental: Pharmacologic inhibition of MYC is achievable through targeting BET bromodomains through small molecule binder or degrader mechanisms.
Test compounds diluted in DMSO were transferred to the cell plates, keeping final DMSO concentration consistent at 0.1%, and incubated for 4 hours at 37° C. […] Luminescence was read using an EnVision plate reader (PerkinElmer) and IC50s generated in Genedata Screener using a 4-parameter non-linear regression fit.

BRD4 [1] = target: T1, BRD4 (Homo sapiens (Human), UniProt O60885); assay: BRD4 degradation assay in PC3-Steap1 cells; assay type: cell-based
Experimental: 2 μL of each sample from the serial dilution was transferred to 98 μL of assay media as an intermediate dilution. 5 μL of intermediate dilution was added to 45 μL of cell plate. Columns 1, 2, 23 and 24 were treated with only 0.2% w/v final concentration of DMSO for data normalization as “neutral controls”. After compound treatment, cell plates were stored in a 37° C. incubator for 4 hours.
Cell plate was incubated at room temperature for 20 minutes. Well contents were aspirated and washed with 100 μL/well PBS 3 times. 50 μL/well of PBS containing 0.5% w/v bovine serum albumen, 0.5% w/v Triton X-100 (Antibody Dilution Buffer) was added to each well. Samples were incubated for 30 minutes. Well contents were aspirated and washed 3 times with 100 μL/well of PBS. PBS was aspirated from the wells.
25 μL per well of BRD4 antibody diluted in buffer was added and incubated overnight at 4° C. On day-3 samples were washed 3 times with 100 μL/well of PBS. […] Samples were incubated for 2 hours at room temperature. Samples were washed 3 times with 100 μL PBS.
(§1) Quantitative fluorescence imaging of BRD4 was carried out using an Opera Phenix High-Content Screening System. […] Hoechst channel was used to identify nuclear region. […] Data analysis was carried out using Genedata Screener, with DMSO and no primary antibody control treated samples being used to define the 0% and 100% changes in BRD4. The dose-response log(inhibitor) vs. response was used to define the inflexion point of curve (IC50) and the plateau of the maximal effect. The Sit value reports degradation as percent change in protein level, so complete loss of the protein target is −100%. Sinf is the maximum degradation achieved, obtained by determining the bottom of a dose-response (where the S-shaped curve levels out).

BRD4 [2] = target: T1, BRD4; assay: BRD4 degradation assay in EoL-1 cells; assay type: cell-based
Experimental: 2 μL of each sample from the serial dilution was transferred to 98 μL of assay media as an intermediate dilution. 5 μL of each well of the intermediate dilution was added to 45 μL of cell plate. Columns 1, 2, 23 and 24 were treated with only 0.2% final concentration of DMSO for data normalization as “neutral controls”. After compound treatment, cell plates were stored in a 37° C. incubator for 4 hours.
The cell plate was incubated at room temperature for 20 minutes. Well contents were aspirated and washed with 100 μL/well PBS 3 times. 50 μL/well of PBS (pH7.5) containing 0.5% w/v bovine serum albumen, 0.5% w/v Triton X-100 (Block/Permeabilzation Buffer) was added to each well. Samples were incubated for 20 minutes. Well contents were aspirated and washed 3 times with 100 μL/well of PBS. PBS was aspirated from the well and 50 μL per well of EoL-1 Block Buffer (PBS containing 10% Normal Goat Serum (Abcam #ab7481)) was added to each well. Plates were incubated at room temperature for 30 minutes. Block buffer was decanted from the wells.
25 μL per well of BRD4 antibody diluted in buffer was added and incubated overnight at 4° C. On day-2 samples were washed 3 times with 100 μL/well of PBS. […] Samples were incubated for 2 hours at room temperature. Samples were washed 3 times with 100 μL PBS.
as §1, with “Sinf” for “Sit”

BRD4_BD2 bromodomain = BRD4_BD2 bromodomain (Homo sapiens (Human), UniProt O60885); assay: BRD4 BD2 biochemical binding assay (TR-FRET); conditions: displacement of biotinylated ligand Compound C
Experimental: (§2) The following assay was used to measure the IC50 for the test compounds ability to bind to the BRD4_BD1 and BRD4_BD2 bromodomains.
(§3) DMSO was backfilled to a final volume of 30 nL as required. […] 1× Assay Buffer was dispensed (5 μL per well) into Minimum Signal control wells. 5 μL of Solution A-3× was dispensed into test wells and Maximum Signal control wells (containing DMSO instead of test compound). Samples were incubated 10 minutes at room temperature. 5 μL of Solution B-3x was dispensed into all wells. Samples were incubated incubate for 10 minutes at room temperature. 5 μL of Solution C-3x was dispensed into all wells. Samples were incubated 40 minutes at room temperature. Plates were read using an Envision (Perkin Elmer) with the following settings: Detection—LANCE Dual Laser 50/200. […] Percentage inhibition was calculated relative to the Minimum Signal control and Maximum Signal control wells. IC50 values were derived by four parameter curve fitting using the Robust method.

BRD4_BD1 bromodomain = BRD4_BD1 bromodomain (Homo sapiens (Human), UniProt O60885); assay: BRD4 BD1 biochemical binding assay (TR-FRET); conditions: displacement of biotinylated ligand Compound C
Experimental: as §2, §3

[3] = 4 hours, immunofluorescence, read-out: Degradation of BRD4 Average EC50
[4] = read-out: Degradation of BRD4 Average EC50, 4 hours, immunofluorescence

Row | SMILES | Maximum Inhibition (%) (mean) of MYC expression (MYC expression) | IC50 (MYC expression) | Dmax (BRD4 [1]; 4 hours, complete loss = −100%, read-out: Sinf (maximum degradation, percent change in protein level)) | DC50 (BRD4 [1]; [3]) | DC50 (BRD4 [2]; [3]) | IC50 (BRD4_BD2 bromodomain) | IC50 (BRD4_BD1 bromodomain) | DC50 (BRD4 [1]; [4]) | DC50 (BRD4 [2]; [4])
1 | Cc1sc2c(c1C)C(c1ccc(C#CCN(C)C)cc1)=N[C@@H](CC(=O)OC(C)(C)C)c1nnc(C)n1-2 [Compound 3a, tert-butyl (S)-2-(4-(4-(3-(dimethylamino)prop-1-yn-1-yl)phenyl)-2,3,9-trimethyl-6H-thieno[3,2-f][1,2,4]triazolo[4,3-a][1,4]diazepin-6-yl)acetate] | 78.7% | 0.0117 µM | -41.9% | > 20 µM | > 20 µM | 0.0207 µM | 0.0145 µM | – | –
2 | CC(=O)NCC#Cc1ccc(C2=N[C@@H](CC(=O)OC(C)(C)C)c3nnc(C)n3-c3sc(C)c(C)c32)cc1 [Compound 10a, tert-butyl (S)-2-(4-(4-(3-acetamidoprop-1-yn-1-yl)phenyl)-2,3,9-trimethyl-6H-thieno[3,2-f][1,2,4]triazolo[4,3-a][1,4]diazepin-6-yl)acetate] | 79.3% | 0.0071 µM | – | > 20 µM | > 20 µM | 0.0107 µM | 0.0066 µM | – | –
3 | CCC#Cc1ccc(C2=N[C@@H](CC(=O)OC(C)(C)C)c3nnc(C)n3-c3sc(C)c(C)c32)cc1 [Compound 13a, tert-butyl (S)-2-(4-(4-(but-1-yn-1-yl)phenyl)-2,3,9-trimethyl-6H-thieno[3,2-f][1,2,4]triazolo[4,3-a][1,4]diazepin-6-yl)acetate] | 71.6% | 0.163 µM | – | – | – | 0.0287 µM | 0.0234 µM | > 20 µM | > 20 µM
4 | CC#Cc1ccc(C2=N[C@@H](CC(=O)OC(C)(C)C)c3nnc(C)n3-c3sc(C)c(C)c32)cc1 [Compound 14a, tert-butyl (S)-2-(2,3,9-trimethyl-4-(4-(prop-1-yn-1-yl)phenyl)-6H-thieno[3,2-f][1,2,4]triazolo[4,3-a][1,4]diazepin-6-yl)acetate] | 73.6% | 0.0972 µM | – | – | – | 0.0203 µM | 0.0188 µM | > 20 µM | > 20 µM
